These are literature values, as cited in patent publication US20120149888A1, “SYNTHESIS OF ARA-2'-O-METHYL-NUCLEOSIDES, CORRESPONDING PHOSPHORAMIDITES AND OLIGONUCLEOTIDES INCORPORATING NOVEL MODIFICATIONS FOR BIOLOGICAL APPLICATION IN THERAPEUCTICS, DIAGNOSTICS, G- TETRAD FORMING OLIGONUCLEOTIDES AND APTAMERS” (priority 2009, published 2012).

One data set relates to P815/FU. As to conditions: 5-Fluorouracil-resistant P815/FU.
The next data set concerns L1210/CA. The note with it: 1β-D-Arabinofuranosylcytosine-resistant L1210/CA.
In data set [1] the test system is ara-C-resistant neoplasms.
For a further data set, the system named is Ehrlich ascites (AZU 1). As to conditions: 6-Azauracil-resistant Ehrlich ascites (AZU 1).
In a further data set the test system is Ehrlich ascites (EAC-R2). The note with it: 6-Methyl thiopurine ribonucleoside-resistant Ehrlich ascites (EAC-R2).
The test system of a further data set is P815-E176. As to conditions: 5-Fluorouracil-resistant P815-E176.
The next data set has as its system L1210 TG/R. As to conditions: Thioguanine-resistant L1210 TG/R.
In data set [2] the test system is nucleoside transport (thymidine uptake). The note with it: for Ki: read-out: Ki value for inhibition of thymidine uptake.
In data set [3] the test system is explants of intact rat colonic mucosa.
For data set [4] the following is noted: in vivo.
For another data set, the system named is ovarian cancer. As to conditions: previously treated patients.

Entries after “also recorded” stand apart in the source; their conditions may differ. Where two headings read alike, the source gives them in different places. A value given as a limit tells only on which side of the number the result lay.

Consider `Nc1nc(=O)n([C@@H]2O[C@H](CO)[C@@H](O)[C@@H]2O)cc1F` [Ara-FC, 1β-D-arabinofuranosyl-5-fluorocytosine], for which the “Response to chemotherapeutic drugs: Same as parent line” value (shortened to “Response … as parent line”) in the data set on P815/FU was “Ara-FC”; in the data set with P815/FU (listed as ara-FC), “retained the same sensitivity”.

In the case of `O=NN(CCCl)C(=O)NCCCl` [BCNU, 1,3-bis(2-chloroethyl)-1-nitrosourea], in the data set on L1210/CA, the “Response … as parent line” value is “BCNU”.

For `COC(COC(N)=O)C1=C(N2CC2)C(=O)C(C)=C(N2CC2)C1=O` (stereo not drawn) [Carbazilquinone], the “Response to chemotherapeutic drugs: collaterally sensitive” value with L1210/MP(III) (mouse, in vivo) is “collateral sensitivity; also recorded: Carbazilquinone”. The “cross-resistance of ara-C-resistant neoplasms to the drug” value (“cross-resistance” below) in data set [1] (in vivo) is listed as “no cross-resistance”. Further, the “Response … as parent line” value in the data set on L5178Y/ara-C (in vivo) is given as “Carbazilquinone”.

Turning to `O=c1cnn([C@@H]2O[C@H](CO)[C@@H](O)[C@H]2O)c(=O)[nH]1` [Compound 6-Azauridine, 6-Azauridine], the “Response to chemotherapeutic drugs: Cross-resistant” value in the data set with Ehrlich ascites (AZU 1) is on record as 6-Azauridine; with Ehrlich ascites (AZU 1) (listed as 6-azauridine), “cross-resistant”.

As for `CN(Cc1cnc2nc(N)[nH]c(=O)c2n1)c1c(Cl)cc(C(=O)NC(CCC(=O)O)C(=O)O)cc1Cl` (stereo not drawn) [DCM, 3′,5′-dichloromethopterin], the “Response … as parent line” value with L1210/CA is reported as “DCM”.

As for `Nc1ncnc2c([C@@H]3O[C@H](CO)[C@@H](O)[C@H]3O)[nH]nc12` [Formycin], the “Response to chemotherapeutic drugs: Cross-resistant” value with Ehrlich ascites (EAC-R2) was “Formycin”.

For the compound `Nc1n[nH]c(N)n1` [Guanazole], in [1] (in vivo), the “cross-resistance” value was “no cross-resistance”. The “Response … as parent line” value in the data set with L1210/ara-C (in vivo) is “Guanazole TSC”.

On to `CCOC(=O)NO` [Hydroxycarbamic Acid ethyl ester], for which the “Response … as parent line” value with L1210/CA was “Hydroxycarbamic”.

Consider `CN(Cc1cnc2nc(N)nc(N)c2n1)c1ccc(C(=O)N[C@@H](CCC(=O)O)C(=O)O)cc1` [Methotrexate], for which the “Response to chemotherapeutic drugs: collaterally sensitive” value with L1210/MP(III) (6-Mercaptopurine-resistant L1210/MP(III)) is “collaterally sensitive”. Besides, the “Response … as parent line” value is reported as “Methotrexate” with P815-E176, “Methotrexate” in the data set with L5178Y/ara-C (L5178Y/ara-C), “Methotrexate” in the data set on L1210 TG/R and “not altered” with L1210 TG/R (listed as methotrexate).

Turning to `COCC(COc1nc(N2CCCCC2)c2nc(OCC(COC)OC)nc(N3CCCCC3)c2n1)OC` (stereo not drawn) [NU3059], the “growth inhibitory activity of the TS inhibitor CB3717” value with L1210 cells (analogue 10 microM) is on record as “enhance”.

Turning to `COc1ccc(CNc2nc(N(CCO)CCO)nc3c(NCc4ccc(OC)cc4)nc(N(CCO)CCO)nc23)cc1` [NU3076], the “inhibition of thymidine uptake in the presence of AGP” value in [2] (AGP 5 mg ml(−1)) was “not significantly affected”. The Ki in data set [2] is 100 nM. In the data set on L1210 cells, the FU cytotoxicity entry was “significant potentiation” and the “reduction of the LC90 of nolatrexed” value is recorded as “> threefold”.

As for `NC(=S)NN=Cc1ccccn1` [TSC, pyridine-2-carboxaldehyde thiosemicarbazone], in data set [1] (several other ara-C-resistant neoplasms), the “cross-resistance” value is on record as “no cross-resistance”. For the same compound, in the data set with L1210/ara-C (L1210/ara-C (Schabel et al., 1971)), the “Response … as parent line” value is “Guanazole TSC”.

Regarding `OCCN(CCO)c1nc(N2CCCCC2)c2nc(N(CCO)CCO)nc(N3CCCCC3)c2n1` [dipyridamole], the “incorporation of tritiated TdR into DNA” value in data set [3] is “reduced”. For the same compound, the Ki in data set [2] was 280 nM. Besides, the “reduction of the LC90 of nolatrexed” value in the data set on L1210 cells (absence of salvageable thymidine) is given as “> threefold”.

On to `NC(=O)c1csc([C@@H]2O[C@H](CO)[C@@H](O)[C@H]2O)n1` [tiazofurin, 2-B-D-Ribofuranosylthiazole-4-Carboxamide], for which, in data set [4], the antitumor activity result was “No antitumor activity was observed”; the dose limiting toxicities result is “pericarditis and clinical symptoms suggestive of a more generalized serositis”; the maximally tolerated dose is reported as 1650 mg/m2; the “patients with sustained depletion of guanine nucleotide pools” value was 1 of 6.

gemcitabine-cisplatin: in the data set with ovarian cancer, the “response, doublets” value is 53%.
